Measurements reported in article PMC9450014, “The evaluation of ADME and pharmacokinetic properties of decoquinate derivatives for the treatment of malaria” (Frontiers in Pharmacology, 2022).
Several values for one entry are separate records, joined by “and”; a condition that tells them apart may be missing. Equal values may be shown once. Read-outs that look alike come from different tables or passages of the source.

Experiments:
[1] = Kinetic solubility in PBS (HPLC-DAD); format: physicochemical; settings: phosphate buffer saline (PBS); for solubility kinetic at 2 h: aqueous buffer, kinetic from dmso stock
Experimental: Stock concentrations of test samples (10 mM) were prepared in DMSO and diluted to a final concentration of […] in phosphate buffer saline (PBS) solutions at pH 2, 6.5, and 7.4 in flat-bottomed 96-well plates. A three-point calibration curve of each control and test compound was prepared from stock solutions in DMSO. Plates were agitated on an orbital shaker at room temperature for 2 h at 200 rpm and subsequently analysed using a reverse phase Gemini NX-C18 column (5 μM, 2.1 mm × 50 mm) with an Agilent 1,200 Rapid Resolution HPLC and diode array detection.

Pf NF54 = settings: ref Beteck et al., 2018, cited from earlier work
[2] = Passive permeability, parallel artificial membrane permeation assay (PAMPA); format: in vitro ADME; settings: donor pH 6.5, acceptor pH 7.4, 4 h, read-out: Permeability (LogPapp) (converted)
Experimental: A parallel artificial membrane permeation assay (PAMPA) was used to assess the passive permeability of compounds with a 96-well MultiScreen filter plate ([…] pore size, Millipore). The filter plate was precoated with 5% hexadecane in hexane. Stock solutions of compounds were diluted to 1 mM in a donor buffer (pH 6.5). Lucifer yellow was added to the apical wells of the precoated MultiScreen plate containing compound donor solution. The donor buffer solutions were spiked with each test compound (1 mM). The acceptor-buffer solution was prepared by adding 10 μL DMSO to 990 μL acceptor buffer (pH 7.4) and 250 μL were added to the basolateral (acceptor) wells. The donor plate was carefully inserted into the acceptor plate and incubated at room temperature for 4 h. After the incubation period, 50 μL of samples from the acceptor plate were transferred to a round bottom 96-well plate, together with 30 μL of donor buffer for matrix matching. Theoretical equilibrium samples for each test compound were prepared by adding 150 μL of donor solutions to 250 μL acceptor solutions and left at room temperature. These theoretical equilibrium samples represent complete transfer of the compound into the donor well. For the theoretical equilibrium samples, 80 μL were added to the analysis plate. Lastly, 160 μL of the internal standard carbamazepine (0.1 μM) was added to all acceptor and equilibrium samples. A portion of the sample containing Lucifer yellow was analyzed on a BioRad iMark^TM Microplate Absorbance Reader (BioRad, Hercules, CA, United States; excitation 490 nm, emission 510–570 nm) to determine that P app was within the acceptable range (<50 nm/s). Samples were analysed using reverse phase Gemini NX-C18 column (5 μM, 2.1 mm × 50 mm) with a Shimadzu HPLC coupled with an AB Sciex 3200 Q TRAP MS). The Papp for each compound was determined using. C=VD × VA/(VD+VA) ×A×t where VA = volume of donor compartment (0.15 cm^3), VD = volume of acceptor compartment (0.25 cm^3), A = accessible filter area (0.24 cm^2) and t = incubation time (14,400 s). […]

[3] = In vivo pharmacokinetics, oral administration; set-up: species or system C57BL/6 mice; settings: mice
Experimental: Healthy C57BL/6 mice each weighing approximately 25 g were maintained at the University of Cape Town animal facility. Mice were housed in 27 × 21 × 28 cm cages (n = 3) under controlled environmental conditions at 22 ± 2°C, humidity of 55 ± 15% and a 12-hour light/dark cycle. Food and water were available ad libitum. Mice were acclimatised to the experimental environment for 4–5 days prior to initiating the experiments. RMB005, −059 and −060 were prepared in an aqueous solution of HPMC containing 0.2% Tween 80. The weighed compound was sonicated and vortexed to obtain a homogenous suspension. Oral dosing of 20 mg/kg was achieved via oral gavage. The total volume per administration was 200 μL. Blood samples were collected post-dose in lithium heparin microvials via tail bleeding at predetermined intervals at 0.5, 1, 3, 5, 8, 10, and 24 h. Samples were gently vortexed and stored at −80°C until analysis. A quantitative LC-MS/MS assay was used to determine whole-blood concentrations of RMB005, −059 and −060. Whole blood samples (20 μL) were treated with 100 μL ice cold acetonitrile containing the compound RMB073 used previously for determination of whole blood concentrations in analysis of TB-active compounds, as internal standard (200 ng/ml) ([Tanner et al., 2019]). The mixture was vortexed vigorously for 1 min, and 5 µL of the supernatant were injected onto the analytical column following centrifugation (5,590 g for 5 min). Gradient elution was carried out using a Gemini NX-C18 analytical column (5 μm, 2.1 mm × 50 mm). The aqueous mobile phase consisted of 5 mm ammonium acetate with 0.1% acetic acid in deionised water, while the organic phase consisted of 0.1% acetic acid in acetonitrile. A Shimadzu HPLC and reverse phase Gemini NX-C18 column coupled to an AB Sciex 3200 Q TRAP MS was operated at unit resolution in the multiple reaction monitoring (MRM) mode. […] The calibration standards ranged from 2 ng/mL to 3,000 ng/mL for RMB005, and 2 ng/mL to 4,000 ng/mL for RMB059, −060 and DQ. Drug concentration versus time plots for each compound were used to determine maximal drug concentration C max, time T max to reach C max, elimination half-life t 1/2 and the area under the concentration-time curve from time zero to infinity, AUC0-inf. From these values the following PK parameters—clearance CL, volume of distribution (Vd) and oral bioavailability (BA) were determined using the non-compartmental analysis Microsoft Excel Add-In PKSolver ([Zhang et al., 2010]).

With `CCCCCCCCCCOc1cc2c(=O)c(C(=O)NCCOCCO)c[nH]c2cc1OCC` [RMB005] the solubility kinetic at 2 h ([1]; PBS pH 2, read-out: Kinetic solubility pH 2) was < 5 µM, the solubility kinetic at 2 h ([1]; PBS pH 6.5, read-out: Kinetic solubility pH 6.5) was < 5 µM and the solubility kinetic at 2 h ([1]; PBS pH 7.4, read-out: Kinetic solubility pH 7.4) was < 5 µM. For the same compound, the solubility at 2 h ([1]; all pH levels tested (pH 2, 6.5, 7.4)) was < 5 µM, the IC50 (Pf NF54; Pf NF54, read-out: NF54 IC50 (line in the PK figures, in vitro IC50 in the discussion)) was 0.04 µM and the IC50 (Pf NF54; read-out: IC50 against Pf NF54) was 0.0404 µM. It also gave a Papp at 4 h, 1 mM [2] of 0.501 ×10⁻⁶ cm/s, a Tmax ([3]; C57BL/6, mouse, whole blood, po, 20 mg/kg, po 20 mg/kg, dosed compound measured) of ~42 min and a Cmax ([3]; C57BL/6, mouse, po 20 mg/kg, whole blood, dosed compound measured, read-out: Cmax) of 490 ± 20 nM. For the same compound, the BA ([3]; po 20 mg/kg vs iv, 20 mg/kg) was 4% and 4 ± 0.3% and the “AUC0-∞” value ([3]; po 20 mg/kg, whole blood, dosed compound measured, 20 mg/kg) was 59 µmol·min/L and 59 ± 2 µmol·min/L.
